Publication PMC11301932 (Fluids and Barriers of the CNS, 2024)
Where two headings read alike, the source gives them in different places.

Legend:
[1] = cited from earlier work
[2] = cited from earlier work; remark: listed apart in the source
[3] = tested on: ABCB1; details: humans, cited from earlier work
[4] = Plasma concentration at the end of the 3 h i.p. infusion; format: in vivo; details: male, FVB, mouse, ip
[5] = standard procedure using buffer in the receiver compartment; ref [24], [33]; cited from earlier work
[6] = Rapid equilibrium dialysis; format: in vitro ADME
[7] = molecular target: T1, Abcg2 (Mus musculus, UniProt Q7TMS5); assay: Inhibition of efflux of substrate drugs from the brain of Abcb1a/b KO mice; format: in vivo
T1 sequence (Q7TMS5 1-657): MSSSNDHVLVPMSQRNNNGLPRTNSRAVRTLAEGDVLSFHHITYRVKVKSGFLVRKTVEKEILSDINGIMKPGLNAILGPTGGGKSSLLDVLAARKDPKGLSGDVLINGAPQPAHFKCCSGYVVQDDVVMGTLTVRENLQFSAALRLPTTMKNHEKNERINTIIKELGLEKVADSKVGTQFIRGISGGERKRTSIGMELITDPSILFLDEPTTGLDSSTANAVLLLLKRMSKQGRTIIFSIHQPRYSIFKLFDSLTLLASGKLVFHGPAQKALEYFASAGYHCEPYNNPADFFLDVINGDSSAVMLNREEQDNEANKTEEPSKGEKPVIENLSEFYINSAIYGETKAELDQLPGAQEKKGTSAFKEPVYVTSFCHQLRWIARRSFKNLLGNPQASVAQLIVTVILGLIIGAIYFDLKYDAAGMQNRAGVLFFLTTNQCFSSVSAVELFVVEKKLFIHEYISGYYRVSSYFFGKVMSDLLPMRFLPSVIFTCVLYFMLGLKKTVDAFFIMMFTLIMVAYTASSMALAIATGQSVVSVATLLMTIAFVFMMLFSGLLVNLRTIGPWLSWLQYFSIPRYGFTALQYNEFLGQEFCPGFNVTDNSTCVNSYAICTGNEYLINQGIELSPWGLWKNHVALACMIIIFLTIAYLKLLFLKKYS

[8] = molecular target: T2, human ABCG2/BCRP (Homo sapiens, UniProt Q9UNQ0); assay: Drug accumulation assay in MDCKII-BCRP cells with 8-drug mixture plus inhibitor; details: in vitro, MDCKII-BCRP vs MDCK-MDR1
T2 sequence (Q9UNQ0 1-655): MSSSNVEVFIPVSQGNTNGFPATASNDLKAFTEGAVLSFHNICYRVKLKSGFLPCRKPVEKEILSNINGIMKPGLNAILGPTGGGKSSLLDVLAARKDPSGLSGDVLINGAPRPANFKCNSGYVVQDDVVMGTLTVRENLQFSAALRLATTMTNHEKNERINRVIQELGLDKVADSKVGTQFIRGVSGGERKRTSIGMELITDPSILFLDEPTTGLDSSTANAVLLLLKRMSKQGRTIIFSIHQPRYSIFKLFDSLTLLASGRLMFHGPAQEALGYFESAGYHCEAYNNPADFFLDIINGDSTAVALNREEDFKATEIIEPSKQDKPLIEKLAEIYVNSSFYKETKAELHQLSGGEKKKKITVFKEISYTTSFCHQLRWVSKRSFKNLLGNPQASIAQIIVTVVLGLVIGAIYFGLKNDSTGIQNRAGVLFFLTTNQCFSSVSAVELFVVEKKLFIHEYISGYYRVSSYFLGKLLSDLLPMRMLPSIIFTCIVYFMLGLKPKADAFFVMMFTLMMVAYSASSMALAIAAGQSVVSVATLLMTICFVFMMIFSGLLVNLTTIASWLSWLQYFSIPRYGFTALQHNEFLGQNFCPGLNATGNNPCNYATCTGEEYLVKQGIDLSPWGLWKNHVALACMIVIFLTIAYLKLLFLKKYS

[9] = molecular target: Abcb1a/b (Mus musculus, UniProt P21447); assay: Inhibition of efflux of substrate drugs from the brain of Abcg2 KO mice; format: in vivo
Sequence of Abcb1a/b (P21447 whole entry): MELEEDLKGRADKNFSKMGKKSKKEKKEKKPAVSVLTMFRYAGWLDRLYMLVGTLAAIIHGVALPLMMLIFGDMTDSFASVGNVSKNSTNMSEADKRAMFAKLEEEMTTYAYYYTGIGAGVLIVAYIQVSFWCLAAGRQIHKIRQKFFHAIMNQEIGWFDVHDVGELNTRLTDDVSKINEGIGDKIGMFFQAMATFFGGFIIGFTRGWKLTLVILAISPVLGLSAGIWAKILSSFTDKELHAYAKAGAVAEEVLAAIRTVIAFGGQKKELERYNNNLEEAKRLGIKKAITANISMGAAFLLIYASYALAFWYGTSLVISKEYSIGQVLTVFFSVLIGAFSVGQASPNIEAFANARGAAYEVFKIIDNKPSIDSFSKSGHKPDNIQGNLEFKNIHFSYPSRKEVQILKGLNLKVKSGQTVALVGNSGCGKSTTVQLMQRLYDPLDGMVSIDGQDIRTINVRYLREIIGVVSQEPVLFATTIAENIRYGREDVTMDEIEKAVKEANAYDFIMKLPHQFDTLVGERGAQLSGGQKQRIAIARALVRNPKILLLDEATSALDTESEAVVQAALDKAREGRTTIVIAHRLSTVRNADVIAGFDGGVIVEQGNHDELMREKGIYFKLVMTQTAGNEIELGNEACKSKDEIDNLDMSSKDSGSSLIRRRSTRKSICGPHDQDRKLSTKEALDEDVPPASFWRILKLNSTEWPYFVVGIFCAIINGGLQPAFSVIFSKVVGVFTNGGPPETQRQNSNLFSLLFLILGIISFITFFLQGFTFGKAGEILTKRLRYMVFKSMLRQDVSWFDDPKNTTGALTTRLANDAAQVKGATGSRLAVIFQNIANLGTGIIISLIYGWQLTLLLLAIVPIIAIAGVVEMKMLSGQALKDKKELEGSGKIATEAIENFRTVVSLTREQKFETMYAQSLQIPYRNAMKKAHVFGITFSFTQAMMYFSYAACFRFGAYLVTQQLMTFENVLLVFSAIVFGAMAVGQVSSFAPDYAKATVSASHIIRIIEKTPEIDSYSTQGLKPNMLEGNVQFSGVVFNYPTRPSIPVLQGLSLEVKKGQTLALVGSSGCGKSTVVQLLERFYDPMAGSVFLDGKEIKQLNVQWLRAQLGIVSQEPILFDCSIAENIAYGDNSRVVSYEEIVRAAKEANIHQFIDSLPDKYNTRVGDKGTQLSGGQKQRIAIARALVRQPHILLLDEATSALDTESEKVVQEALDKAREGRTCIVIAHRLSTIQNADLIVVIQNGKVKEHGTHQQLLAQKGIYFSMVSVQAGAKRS

[10] = tested on: Abcb1a/b and Abcg2; assay: Inhibition of efflux of substrate drugs from the brain of WT mice; details: mouse, in vivo
[11] = Brain penetration; details: WT mice, ABC transporter mediated efflux present, no inhibitor

## CNC(=O)c1cc(Oc2ccc(N[11C](=O)Nc3ccc(Cl)c(C(F)(F)F)c3)cc2)ccn1 [[^11C]sorafenib]
[1]; PET, ref [38]
  Fold higher brain uptake in Abcg2;Abcb1a/b KO vs WT mice: 3 fold

## COc1cc2c(cc1OC)CN(CCc1ccc(NC(=O)c3cc(OC)c(OC)cc3NC(=O)c3cnc4ccccc4c3)cc1)CC2 [Tariquidar]
[2]; humans, tariquidar 4–8 mg/kg i.v., 1.5–2.5 h, ref [19], [35]
  Plasma level at the end of the infusion: 3000 to 4000 nM
[2]; oral dosing in humans, ref [20]
  Oral bioavailability: very low
[3]; tariquidar 4–8 mg/kg, infusion 1.5–2.5 h, ref [19], [35]
  Fold increase of VT, brain of [11C]verapamil: 3.5 fold
[3]; tariquidar 2 mg/kg, 30 min i.v. infusion, ref [41]
  Fold increased brain radioactivity of [11C]verapamil: ≤ 2 fold
[4]; 10.5 mg/kg/h
  concentration at 3 h: > 6000 nM
[5]
  Free fraction: below 0.01
[6]; RED competition setup
  Plasma protein binding, mouse versus human plasma: very high but similar in mouse and human plasma
[6]; RED, undiluted human or mouse plasma to human plasma, after 24 h of incubation
  Fraction retrieved in the receiver chamber: 2–3%
[7]; Abcb1a/b KO and WT mice (Abcg2 proficient)
  Change of own B/P ratio with plasma concentration: did not increase
[7]; Abcb1a/b KO mice
  Enhancement of brain accumulation of ABCG2-substrate drugs: none of the ABCG2-substrate drugs exhibit significant enhancement
[8]
  Fold higher IC50 for ABCG2 than for ABCB1: about 10 fold
[9]
  Inhibitor plasma level for (near) complete inhibition of ABCB1 at the BBB: at least 4000 nM
  Plasma level above which own B/P ratio starts to increase: above 4000 nM
[9]; for loperamide and afatinib
  Tariquidar plasma level required for near complete ABCB1 inhibition: ≥ 6 µM
[9]; for verapamil and erlotinib
  Tariquidar plasma level required for near complete ABCB1 inhibition: at least 4000 nM

## COc1cc2c(cc1OC)CN(CCc1ccc(NC(=O)c3cccc4c(=O)c5cccc(OC)c5[nH]c34)cc1)CC2 [Elacridar, 9,10-dihydro-5-methoxy-9-oxo-N-[4-[2-(1,2,3,4-tetrahydro-6,7-dimethoxy-2-isoquinolinyl)ethyl]phenyl]-4-acridine-carboxamide]
[10]
  Proposed target plasma level to enhance brain entry: 1200 nM and about 700 ng/ml
[5]
  Free fraction: below 0.01
[7]; Abcb1a/b KO mice, palbociclib, dasatinib and erlotinib (Class II)
  Elacridar plasma level for maximum inhibition of efflux: above 1200 nM
[7]; brain efflux in mice
  Plasma level at which inhibitor inhibits its own ABCG2-mediated efflux: about 1200 nM

## CNC(=O)c1cc(Oc2ccc(NC(=O)Nc3ccc(Cl)c(C(F)(F)F)c3)cc2)ccn1 [Sorafenib]
[1]; LC-MS/MS on brain homogenates, ref [39]
  Fold higher brain uptake in Abcg2;Abcb1a/b KO vs WT mice: 9.3 fold

## COc1ccc(CCN(C)CCCC(C#N)(c2ccc(OC)c(OC)c2)C(C)C)cc1OC (stereo not shown) [Verapamil]
[4]
  concentration at 3 h: 100 to 250 nM

## C#Cc1cccc(Nc2ncnc3cc(OCCOC)c(OCCOC)cc23)c1 [Erlotinib]
[4]
  concentration at 3 h: 100 to 250 nM

## CCCS(=O)(=O)Nc1ccc(F)c(C(=O)c2c[nH]c3ncc(-c4ccc(Cl)cc4)cc23)c1F [Vemurafenib]
[4]
  concentration at 3 h: 100 to 250 nM
[11]
  B/P ratio: 0.02
